Experimental data: ChEMBL document CHEMBL5608174, “Synthesis and biological evaluation of 4-phenyl-5-quinolinyl substituted isoxazole analogues as potent cytotoxic and tubulin polymerization inhibitors against ESCC” (Eur J Med Chem, 2024)
Activity calls are given as the source filed them. No cut-off for these calls is given here.

Columns and labels:
[1] = tested on: MGC-803; assay: Antiproliferative activity against human MGC-803 cells assessed as inhibition of cell proliferation incubated for 48 hrs by MTT assay; assay type: functional, cell-based; conditions: MGC-803, 48 h
[2] = species: Sus scrofa; assay: Inhibition of porcine brain tubulin polymerization measured every 30 secs for 120 times in the presence of GTP by fluorescence based assay; conditions: time 60.0 min
[3] = target: T1, Tubulin beta (Homo sapiens) (UniProt P68371+Q9H4B7+Q13509+P04350+Q3ZCM7+P07437+Q13885+Q9BVA1+Q9BUF5+A6NNZ2); assay: Binding affinity to beta-tubulin colchicine binding site in human KYSE-30 cells assessed as inhibition of EBI-beta-tubulin adduct band formation at 0 to 10 micromol/L preincubated for 2 hrs followed by EBI addition measured after 2 hrs by EBI competition based Western blotting analysis; assay type: cell-based; conditions: dose 0-10 µmol/L, time 4.0 hrs
[4] = target: T1, Tubulin beta (Homo sapiens); assay: Binding affinity to beta-tubulin colchicine binding site in human KYSE-70 cells assessed as inhibition of EBI-beta-tubulin adduct band formation at 0 to 10 micromol/L preincubated for 2 hrs followed by EBI addition measured after 2 hrs by EBI competition based Western blotting analysis; assay type: cell-based; conditions: dose 0-10 µmol/L, time 4.0 hrs
[5] = target: T2, Tubulin (Homo sapiens) (UniProt P68371+Q9H4B7+P0DPH7+P68366+Q13509+Q71U36+P04350+Q3ZCM7+P07437+P68363+Q9BQE3+Q6PEY2+Q13885+Q9BVA1+Q9BUF5); assay: Inhibition of tubulin polymerization in human KYSE-70 cells assessed as reduction in filamentous microtubule structure formation at 5 to 20 nmol/L incubated for 24 hrs by DAPI staining based fluorescence microscopic analysis; assay type: cell-based; conditions: dose 5-20 nmol/L
[6] = tested on: KYSE-30; assay: Inhibition of colony formation in human KYSE-30 cells at 4 nmol/L incubated for 7 days by crystal violet staining based analysis; assay type: functional, cell-based; conditions: time 7.0 day
[7] = tested on: KYSE-70 cell line; assay: Inhibition of human KYSE-70 cells proliferation at 5 to 20 nmol/L incubated for 48 hrs by real time cellular analysis; assay type: functional, cell-based; conditions: dose 5-20 nmol/L
[8] = tested on: KYSE-70 cell line; assay: Induction of cell cycle arrest in human KYSE-70 cells assessed as accumulation of cells at G2/M phase at 10 nmol/L by PI staining based flow cytometric analysis; assay type: functional
[9] = tested on: KYSE-30; assay: Induction of morphological changes in human KYSE-30 cells assessed as fragmentation at 5 to 20 nmol/L incubated for 48 hrs by Bright field microscopic analysis; assay type: functional, cell-based; conditions: dose 5-20 nmol/L
[10] = tested on: KYSE-30; assay: Induction of morphological changes in human KYSE-30 cells assessed as decrease in cell density at 5 to 20 nmol/L incubated for 48 hrs by Calcein AM/PI staining based inverted fluorescence microscopic analysis; assay type: functional; conditions: dose 5-20 nmol/L
[11] = tested on: KYSE-30; assay: Induction of apoptosis in human KYSE-30 cells assessed as early apoptotic cells at 5 nmol/L incubated for 48 hrs by Annexin V-FITC/PI staining based flow cytometry analysis (reference value: 4.38 %); assay type: functional
[12] = tested on: KYSE-30; assay: Induction of apoptosis in human KYSE-30 cells assessed as late apoptotic cells at 5 nmol/L incubated for 48 hrs by Annexin V-FITC/PI staining based flow cytometry analysis (reference value: 5.27 %); assay type: functional
[13] = tested on: KYSE-30; assay: Induction of apoptosis in human KYSE-30 cells assessed as early apoptotic cells at 10 nmol/L incubated for 48 hrs by Annexin V-FITC/PI staining based flow cytometry analysis (reference value: 4.38 %); assay type: functional
[14] = tested on: KYSE-30; assay: Induction of apoptosis in human KYSE-30 cells assessed as necrotic cells at 10 nmol/L incubated for 48 hrs by Annexin V-FITC/PI staining based flow cytometry analysis (reference value: 1.59 %); assay type: functional
[15] = tested on: KYSE-30; assay: Induction of apoptosis in human KYSE-30 cells assessed as viable cells at 20 nmol/L incubated for 48 hrs by Annexin V-FITC/PI staining based flow cytometry analysis (reference value: 88.76 %); assay type: functional; conditions: read-out: Activity
[16] = tested on: KYSE-30; assay: Induction of apoptosis in human KYSE-30 cells assessed as early apoptotic cells at 20 nmol/L incubated for 48 hrs by Annexin V-FITC/PI staining based flow cytometry analysis (reference value: 4.38 %); assay type: functional
[17] = tested on: KYSE-30; assay: Induction of apoptosis in human KYSE-30 cells assessed as necrotic cells at 20 nmol/L incubated for 48 hrs by Annexin V-FITC/PI staining based flow cytometry analysis (reference value: 1.59 %); assay type: functional
[18] = tested on: KYSE-70 cell line; assay: Induction of apoptosis in human KYSE-70 cells assessed as late apoptotic cells at 5 nmol/L incubated for 48 hrs by Annexin V-FITC/PI staining based flow cytometry analysis (reference value: 3.01%); assay type: functional
[19] = tested on: KYSE-70 cell line; assay: Induction of apoptosis in human KYSE-70 cells assessed as early apoptotic cells at 10 nmol/L incubated for 48 hrs by Annexin V-FITC/PI staining based flow cytometry analysis (reference value: 1.78%); assay type: functional
[20] = tested on: KYSE-70 cell line; assay: Induction of apoptosis in human KYSE-70 cells assessed as late apoptotic cells at 10 nmol/L incubated for 48 hrs by Annexin V-FITC/PI staining based flow cytometry analysis (reference value: 3.01%); assay type: functional
[21] = tested on: KYSE-70 cell line; assay: Induction of apoptosis in human KYSE-70 cells assessed as early apoptotic cells at 20 nmol/L incubated for 48 hrs by Annexin V-FITC/PI staining based flow cytometry analysis (reference value: 1.78%); assay type: functional
[22] = tested on: Esophageal squamous cell carcinoma cell; assay: Induction of apoptosis in human Esophageal squamous cell carcinoma cell assessed as increase in caspase-3 activation at 5 to 20 nmol/L incubated for 48 hrs by Western blot analysis; assay type: functional, cell-based; conditions: dose 5-20 nmol/L
[23] = tested on: Esophageal squamous cell carcinoma cell; assay: Induction of apoptosis in human Esophageal squamous cell carcinoma cell assessed as increase in caspase-7 activation at 5 to 20 nmol/L incubated for 48 hrs by Western blot analysis; assay type: functional, cell-based; conditions: dose 5-20 nmol/L
[24] = Toxicity in female BALB/c-nu nude mouse xenografted with human KYSE-30 cells assessed as effect on serum ALT level at 6 to 12 mg/kg, ip administered for 15 days by biochemical analysis; assay type: organism-based; conditions: in vivo, 360 h, dose 6-12 mg/kg, time 15 day
[25] = Toxicity in female BALB/c-nu nude mouse xenografted with human KYSE-30 cells assessed as effect on serum AST level at 6 to 12 mg/kg, ip administered for 15 days by biochemical analysis; assay type: organism-based; conditions: in vivo, 360 h, dose 6-12 mg/kg, time 15 day
[26] = Toxicity in female BALB/c-nu nude mouse xenografted with human KYSE-30 cells assessed as effect on serum blood urea nitrogen level at 6 to 12 mg/kg, ip administered for 15 days by biochemical analysis; assay type: organism-based; conditions: in vivo, 360 h, dose 6-12 mg/kg, time 15 day
[27] = Toxicity in female BALB/c-nu nude mouse xenografted with human KYSE-30 cells assessed as effect on serum uric acid level at 6 to 12 mg/kg, ip administered for 15 days by biochemical analysis; assay type: organism-based; conditions: in vivo, 360 h, dose 6-12 mg/kg, time 15 day
[28] = Toxicity in female BALB/c-nu nude mouse xenografted with human KYSE-30 cells assessed as change in liver pathology at 6 to 12 mg/kg, ip administered for 15 days by H and E staining based analysis; assay type: organism-based; conditions: in vivo, 360 h, dose 6-12 mg/kg, time 15 day
[29] = target: T2, Tubulin (Homo sapiens); assay: Inhibition of tubulin polymerization in human KYSE-70 cells assessed as effect on mitotic phase at 5 to 20 nmol/L incubated for 24 hrs by DAPI staining based fluorescence microscopic analysis; assay type: cell-based; conditions: dose 5-20 nmol/L
[30] = target: T2, Tubulin (Homo sapiens); assay: Inhibition of tubulin polymerization in human KYSE-30 cells assessed as multinucleation of cells at 5 to 20 nmol/L incubated for 24 hrs by DAPI staining based fluorescence microscopic analysis; assay type: cell-based; conditions: dose 5-20 nmol/L

In the case of `COc1ccc(-c2cnoc2-c2cc(C)nc3ccccc23)cc1`, the IC50 [1] is reported as 14 nM, the inhibition [2] is reported as “Active” and the Activity [3] is reported as “Active”. For the same compound, the Activity [4] was “Active”, the inhibition [5] was “Active” and the inhibition [6] was “Active”. For the same compound, the inhibition [7] was “Active”, the Activity [8] was “Active” and the Activity [9] was “Active”. For the same compound, the Activity [10] was “Active”, the Activity [11] was 46.64% and the Activity [12] was 11.99%. The Activity [13] was 47.75%, the Activity [14] was 2.86% and the viability at 0.02 µM [15] was 38.9%. It also gave an Activity [16] of 47.76%, an Activity [17] of 3.2% and an Activity [18] of 6.21%. The Activity [19] was 28.93%, the Activity [20] was 14.3% and the Activity [21] was 30.31%. For the same compound, the Activity [22] was “Active”, the Activity [23] was “Active” and the Activity [24] was “Non-Toxic”. The Activity [25] was “Non-Toxic”, the Activity [26] was “Non-Toxic” and the Activity [27] was “Non-Toxic”. The Activity [28] was “Non-Toxic”, the inhibition [29] was “Active” and the inhibition [30] was “Active”.
